Measured values reported in patent publication US6727076B2 (priority 1995, dated 2004).

Tests used:
E. coli = format: cell-based
[1] = tested on: E. coli strain 14443 (MG1655 (FB426)); format: cell-based; also: key: '+' indicates that the organism tested was capable of utilizing the carbon source listed; '−' indicates that the organism tested was not capable of utilizing the carbon source listed; 'w' indicates weak positive reactions
[2] = tested on: E. coli strain 14444 (MG1655 xylA); format: cell-based
[3] = tested on: E. coli strain 14445 (MG1655 himA); format: cell-based
[4] = tested on: E. coli strain 6320 (W3110); format: cell-based; also: key: '+' indicates that the organism tested was capable of utilizing the carbon source listed; '−' indicates that the organism tested was not capable of utilizing the carbon source listed; 'w' indicates weak positive reactions
[5] = tested on: E. coli strain 6321 (MG1655); format: cell-based; also: key: '+' indicates that the organism tested was capable of utilizing the carbon source listed; '−' indicates that the organism tested was not capable of utilizing the carbon source listed; 'w' indicates weak positive reactions
[6] = tested on: E. coli strain 6322 (EMG2 (K12, λF+)); format: cell-based; also: key: '+' indicates that the organism tested was capable of utilizing the carbon source listed; '−' indicates that the organism tested was not capable of utilizing the carbon source listed; 'w' indicates weak positive reactions
[7] = tested on: E. coli strain 11547 (O157:H7); format: cell-based
[8] = tested on: E. coli strain 13671 (O157:H? gur+); format: cell-based
[9] = tested on: E. coli strain 13673 (O157); format: cell-based
[10] = tested on: E. coli strain 13675 (O157); format: cell-based
[11] = tested on: E. coli 287 (ATCC #11775); format: cell-based
T. harzianum DAOM 190830 = format: cell-based, Trichoderma harzianum
E. coli MG1655 [12] = format: cell-based
E. coli MG1655 [13] = format: cell-based; remark: listed apart in the source

Compound	use as carbon source (E. coli)	carbon source utilization [1]	carbon source utilization [2]	carbon source utilization [3]	carbon source utilization [4]	carbon source utilization [5]	carbon source utilization [6]	carbon source utilization [7]	carbon source utilization [8]	carbon source utilization [9]	carbon source utilization [10]	carbon source utilization result [11]	suitability as nitrogen source (growth, purple color) (E. coli MG1655 [12])	other results
C[C@H](O)[C@@H](N)C(=O)O [D-threonine]	can use													
OC[C@H]1O[C@H](OCC2O[C@@H](O)[C@H](O)[C@@H](O)[C@@H]2O)[C@H](O)[C@@H](O)[C@H]1O (stereo partly drawn) [D-melibiose]		+	+	+	+	+	+	+	+	+	+	positive		carbon source utilization result (T. harzianum DAOM 190830): positive
N[C@@H](CC(=O)O)C(=O)O [L-aspartic acid]	can use											positive	positive	
N[C@@H](C(=O)O)[C@@H](O)[C@H](O)[C@H](O)CO [D-glucosaminic acid]		−	−	−	−	−	−	−	−	−	−	negative		
N[C@H](CC(=O)O)C(=O)O [D-aspartic acid]	can use												not suitable	
O=P(O)(O)OCC(O)CO (racemic) [D,L-α-glycerol phosphate]		−	−	−	−	+	+	+	+	+	+	positive		suitability as phosphorus source (growth, purple color) (E. coli MG1655 [13]): positive
O=C1O[C@@H]([C@H](O)CO)[C@H](O)[C@H]1O [D-galactonic acid-γ-lactone]		+	+	+	−	+	+	−	−	−	−	positive		carbon source utilization, in words [7]: negative; carbon source utilization, in words [8]: negative; carbon source utilization, in words [9]: negative; carbon source utilization, in words [10]: negative
N[C@H](CO)C(=O)O [D-serine]	can use											positive	not suitable	
NCCO [2-amino ethanol]		−	−	−	−	−	−	−	−	−	−	positive/negative	not suitable	
OC[C@H]1O[C@H](O[C@H]2O[C@H](CO)[C@@H](O)[C@H](O)[C@H]2O)[C@H](O)[C@@H](O)[C@@H]1O [D-trehalose]		+	+	+	+	+	+	+	+	+	+	positive		carbon source utilization result (T. harzianum DAOM 190830): positive
C[C@@H](N)C(=O)O [D-alanine]	can use											positive	positive	
COC1OC(CO)C(O)C(O)C1O (stereo not drawn) [β-methyl glucoside]		+	+	+	+	+	+	+	+	+	+	positive		carbon source utilization result (T. harzianum DAOM 190830): positive
C[C@H](N)C(=O)O [L-alanine]	can use											positive	not suitable	carbon source utilization result (T. harzianum DAOM 190830): positive
N[C@@H](CO)C(=O)O [L-serine]	can use											positive	not suitable	carbon source utilization result (T. harzianum DAOM 190830): positive
Maltotriose		+	−	−	+	+	+	+	+	+	+			carbon source utilization, in words [2]: negative; carbon source utilization, in words [3]: negative
O=C1O[C@H]([C@@H](O)CO)[C@@H](O)[C@@H]1O [L-galactonic acid γ-lactone]		+	+	+	+	+	+	+	+	+	+			
O=P(O)(O)O[C@H]1O[C@H](CO)[C@@H](O)[C@H](O)[C@H]1O [Glucose-1-phosphate]		+	+	+	+	+	+	+	+	+	+	positive		suitability as phosphorus source (growth, purple color) (E. coli MG1655 [13]): positive
OC[C@@H](O)[C@H](O)[C@H](O)[C@@H](O)CO [Dulcitol]		−	−	−	−	+	−	+	+	−	+			
NC(=O)CC[C@H](N)C(=O)O [L-glutamine]	can use												positive	
O=C(O)Cc1ccc(O)cc1 [P-hydroxy phenylacetic acid]		−	−	−	−	−	−	−	−	−	−	negative		
CC(O)CO (centres unmarked) [1,2-propanediol]		−	−	−	−	−	−	−	−	−	−			
O=C(O)CC(O)C(=O)O (racemic) [D,L-malic acid]		+	+	+	+	+	+	+	+	+	+			
O=C(O)C[C@H](O)C(=O)O [L-malic acid]		+	+	+	+	+	+	+	+	+	+			
C[C@H](O)C(=O)O [L-lactic acid]		+	+	+	+	+	+	+	+	+	+			
